Results taken from ChEMBL document CHEMBL1201862, “PubChem BioAssay data set” (2004).
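Interpolation was linear, between the two tested concentrations surrounding the appropriate level; five concentrations were tested over 48 hours in 96-well plates. Abbreviation: GI50, concentration required for 50% inhibition of growth.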 Active and inactive are the calls of the source. Rule as the data show it: active = GI50 up to about 1.1 µM and inactive = higher.

How the values were obtained:
Assay in all cases: inhibition of tumour cell growth, NCI panel, 48 h
786-0 = test system: 786-0
UACC-62 = test system: UACC-62
SK-MEL-5 = test system: SK-MEL-5
M14 = test system: M14
SNB-75 = test system: SNB-75
SF-268 = test system: SF-268
SK-MEL-2 = test system: SK-MEL-2
HT-29 = test system: HT-29
PC-3 = test system: PC-3
K562 = test system: K562
OVCAR-8 = test system: OVCAR-8
Hs-578T = test system: Hs-578T
SF-295 = test system: SF-295
U-251 = test system: U-251
T47D = test system: T47D
DU-145 = test system: DU-145
SW-620 = test system: SW-620

| SMILES | GI50 (786-0) | GI50 (UACC-62) | GI50 (SK-MEL-5) | GI50 (M14) | GI50 (SNB-75) | GI50 (SF-268) | GI50 (SK-MEL-2) | GI50 (HT-29) | GI50 (PC-3) | GI50 (K562) | GI50 (OVCAR-8) | GI50 (Hs-578T) | GI50 (SF-295) | GI50 (U-251) | GI50 (T47D) | GI50 (DU-145) | GI50 (SW-620) |
| --- | --- | --- | --- | --- | --- | --- | --- | --- | --- | --- | --- | --- | --- | --- | --- | --- | --- |
| O=C(Nc1ccccc1)OCCN=c1c2ccccc2ccc2ccccc12 | 32.7 µM (inactive) | 15 µM (inactive) | 14.1 µM (inactive) | 19.1 µM (inactive) | 26 µM (inactive) | 34.8 µM (inactive) | 11.3 µM (inactive) | 17.2 µM (inactive) | 20.9 µM (inactive) | 14.7 µM (inactive) | 26.5 µM (inactive) | 11.5 µM (inactive) | 14 µM (inactive) | 25.9 µM (inactive) | 13.1 µM (inactive) | 28.8 µM (inactive) | 31.9 µM (inactive) |
| OC1CC2CCCN(CCc3c1[nH]c1ccccc31)C2 (stereo unspecified) | > 100 µM (inactive) | 86.7 µM (inactive) | 47.3 µM (inactive) |  | > 100 µM (inactive) | > 100 µM (inactive) | > 100 µM (inactive) | > 100 µM (inactive) | > 100 µM (inactive) | > 100 µM (inactive) | > 100 µM (inactive) | > 100 µM (inactive) | > 100 µM (inactive) | > 100 µM (inactive) | > 100 µM (inactive) | > 100 µM (inactive) | > 100 µM (inactive) |
| Nc1ccc(C(=O)O)cc1 [AMINOBENZOIC ACID] | > 100 µM (inactive) |  | > 100 µM (inactive) | > 100 µM (inactive) | > 100 µM (inactive) | > 100 µM (inactive) | > 100 µM (inactive) | > 100 µM (inactive) | > 100 µM (inactive) | > 100 µM (inactive) | > 100 µM (inactive) | > 100 µM (inactive) | > 100 µM (inactive) | > 100 µM (inactive) | > 100 µM (inactive) | > 100 µM (inactive) | > 100 µM (inactive) |
| O=C1c2cccc3cc([N+](=O)[O-])cc(c23)C(=O)N1O | 45.2 µM (inactive) | 23.9 µM (inactive) | 35.6 µM (inactive) | 39.2 µM (inactive) |  | 85.3 µM (inactive) | 32.4 µM (inactive) | 31 µM (inactive) | 43.5 µM (inactive) | 36.8 µM (inactive) | 44.5 µM (inactive) | 38.7 µM (inactive) | 46.1 µM (inactive) | 41.8 µM (inactive) | 37.2 µM (inactive) | 37.5 µM (inactive) | 38.2 µM (inactive) |
| O=C(Nc1ccc2ncccc2c1)c1cc2c(cc1Cl)Sc1nccn1S2(=O)=O | 13.6 µM (inactive) | 16.6 µM (inactive) | 15.3 µM (inactive) | 15.1 µM (inactive) | 15.3 µM (inactive) | 18.1 µM (inactive) | 17.3 µM (inactive) | 16.7 µM (inactive) | 33.6 µM (inactive) | 6.31 µM (inactive) | 16.5 µM (inactive) | 31.2 µM (inactive) | 15.9 µM (inactive) | 13.6 µM (inactive) | 14.7 µM (inactive) | 14.3 µM (inactive) | 16 µM (inactive) |
| Cn1c(=O)c2nc(CCCCc3nc4ccccc4[nH]3)[nH]c2n(C)c1=O | > 100 µM (inactive) | > 100 µM (inactive) | > 100 µM (inactive) | > 100 µM (inactive) | 30.1 µM (inactive) | > 100 µM (inactive) | > 100 µM (inactive) | > 100 µM (inactive) | > 100 µM (inactive) | > 100 µM (inactive) | > 100 µM (inactive) | 30.3 µM (inactive) | > 100 µM (inactive) | > 100 µM (inactive) | > 100 µM (inactive) | > 100 µM (inactive) | > 100 µM (inactive) |
| CC(C)OC(=O)c1ccc(CCc2cc(O)c(Br)cc2O)cc1 | 12 µM (inactive) | 20.2 µM (inactive) | 15.1 µM (inactive) | 15.6 µM (inactive) | 21 µM (inactive) | 10.1 µM (inactive) | 13.1 µM (inactive) | 18.7 µM (inactive) | 8.32 µM (inactive) | 8.65 µM (inactive) | 13.9 µM (inactive) | 14.6 µM (inactive) | 17.3 µM (inactive) | 7.48 µM (inactive) | 22 µM (inactive) | 14.4 µM (inactive) | 8.65 µM (inactive) |
| COc1cc(/C=[N+](\[O-])c2ccccc2Cl)ccc1OC(=S)S | 50.4 µM (inactive) | 21 µM (inactive) | 16.6 µM (inactive) | 30.9 µM (inactive) | 18 µM (inactive) | 42.7 µM (inactive) | 32.5 µM (inactive) | 42.5 µM (inactive) | 38.2 µM (inactive) | 25.9 µM (inactive) | 32.7 µM (inactive) | 61.7 µM (inactive) | 30.3 µM (inactive) | 38.5 µM (inactive) | 18.8 µM (inactive) | 72.1 µM (inactive) | 37.1 µM (inactive) |
| C=C1C2CC3CCC2C(OC(=O)c2ccccc2C(=O)O)C13 (stereo unspecified) | > 100 µM (inactive) | > 100 µM (inactive) | > 100 µM (inactive) | > 100 µM (inactive) | 3.1 µM (inactive) | > 100 µM (inactive) | > 100 µM (inactive) | > 100 µM (inactive) | > 100 µM (inactive) | > 100 µM (inactive) | > 100 µM (inactive) | > 100 µM (inactive) | > 100 µM (inactive) | > 100 µM (inactive) | > 100 µM (inactive) | > 100 µM (inactive) | > 100 µM (inactive) |
| CCC[C@H](C)[C@H]1NC(=O)[C@@H](NC(=O)[C@@H](CC(C)C)N(C)C(=O)C2CCCN2C(=O)[C@H](C)O)[C@@H](C)OC(=O)[C@H](CC(C)C)N(C)C(=O)[C@@H]2CCCN2C(=O)[C@H](CC(C)C)NC(=O)[C@@H](C)C(=O)[C@H](C(C)C)OC(=O)C[C@@H]1O (stereo partly specified) | < 0.0025 µM (active) | < 0.0025 µM (active) | < 0.0025 µM (active) | < 0.0025 µM (active) | < 0.0025 µM (active) | < 0.0025 µM (active) | < 0.0025 µM (active) | < 0.0025 µM (active) | < 0.0025 µM (active) | < 0.0025 µM (active) | < 0.0025 µM (active) | < 0.0025 µM (active) | < 0.0025 µM (active) | < 0.0025 µM (active) | < 0.0025 µM (active) | < 0.0025 µM (active) | < 0.0025 µM (active) |
| NC(Cc1c[nH]c2ccc([N+](=O)[O-])cc12)C(=O)O (stereo unspecified) | > 100 µM (inactive) | > 100 µM (inactive) | > 100 µM (inactive) | > 100 µM (inactive) | > 100 µM (inactive) | > 100 µM (inactive) | > 100 µM (inactive) | > 100 µM (inactive) | > 100 µM (inactive) | > 100 µM (inactive) | > 100 µM (inactive) | 24.7 µM (inactive) | > 100 µM (inactive) | > 100 µM (inactive) | > 100 µM (inactive) | > 100 µM (inactive) | > 100 µM (inactive) |
| Nc1cc(F)ccc1CC(=O)O | > 100 µM (inactive) | > 100 µM (inactive) | > 100 µM (inactive) | > 100 µM (inactive) | > 100 µM (inactive) | > 100 µM (inactive) | > 100 µM (inactive) | > 100 µM (inactive) | > 100 µM (inactive) | > 100 µM (inactive) | > 100 µM (inactive) | > 100 µM (inactive) | > 100 µM (inactive) | > 100 µM (inactive) | > 100 µM (inactive) | > 100 µM (inactive) | > 100 µM (inactive) |
| Cc1ccc2c(c1C)CC1(Cc3ccc(C)c(C)c3C1=O)C2=O (stereo unspecified) | 39.4 µM (inactive) | > 100 µM (inactive) | 76.9 µM (inactive) | > 100 µM (inactive) | 67.6 µM (inactive) | > 100 µM (inactive) | > 100 µM (inactive) |  | > 100 µM (inactive) | > 100 µM (inactive) | 61.5 µM (inactive) | 91.8 µM (inactive) | 30.3 µM (inactive) | 44 µM (inactive) | > 100 µM (inactive) | > 100 µM (inactive) | > 100 µM (inactive) |
| Cn1c2c(c3ccccc31)CCN1C(=O)CCC21 (stereo unspecified) | > 10 µM (inactive) |  | > 10 µM (inactive) | > 10 µM (inactive) | > 10 µM (inactive) | > 10 µM (inactive) | > 10 µM (inactive) | > 10 µM (inactive) | > 10 µM (inactive) | > 10 µM (inactive) | > 10 µM (inactive) | > 10 µM (inactive) | > 10 µM (inactive) | > 10 µM (inactive) | > 10 µM (inactive) | > 10 µM (inactive) | > 10 µM (inactive) |
| N#CC(C#N)=CNCCN1CCN(C=C(C#N)C#N)CC1 | > 100 µM (inactive) | > 100 µM (inactive) | > 100 µM (inactive) | > 100 µM (inactive) |  | > 100 µM (inactive) | > 100 µM (inactive) | > 100 µM (inactive) | > 100 µM (inactive) | > 100 µM (inactive) | > 100 µM (inactive) | > 100 µM (inactive) | > 100 µM (inactive) | > 100 µM (inactive) | > 100 µM (inactive) | > 100 µM (inactive) | > 100 µM (inactive) |
| Cc1cc(=O)n2nc(SCc3ccccc3)sc2n1 | > 100 µM (inactive) | 28.4 µM (inactive) | 43.2 µM (inactive) | > 100 µM (inactive) | > 100 µM (inactive) | > 100 µM (inactive) |  | > 100 µM (inactive) | > 100 µM (inactive) | 18.2 µM (inactive) | > 100 µM (inactive) | 25.4 µM (inactive) | > 100 µM (inactive) | > 100 µM (inactive) | 42.3 µM (inactive) | > 100 µM (inactive) | > 100 µM (inactive) |
| O=CN1CCN(C(=O)c2cc(Cl)cc(Cl)c2)C1=S | 4.71 µM (inactive) | 15.8 µM (inactive) |  | 15.6 µM (inactive) | 13.3 µM (inactive) | 16.1 µM (inactive) | 16.9 µM (inactive) | 24.3 µM (inactive) | 16.6 µM (inactive) | 14.8 µM (inactive) | 19.1 µM (inactive) | 21 µM (inactive) | 17.7 µM (inactive) | 17 µM (inactive) | 10.7 µM (inactive) | 16.8 µM (inactive) | 19 µM (inactive) |
